Laboratory results reported in patent US20230310654A1 (priority 2020, published 2023).

Legend:
[1] = system: male cynomolgus monkeys; settings: cynomolgus monkey, in vivo
[2] = system: juvenile mice; settings: mouse, in vivo
[3] = system: CBE mouse model; settings: in vivo

Compound | effect on safety or biodistribution of PR001A [1] | lethality (mice died by P27) [2] | body weight ([2]; ip) | adverse effects in peripheral tissues [3] | inhibition of PR001A-encoded and endogenous GCase activity by CBE treatment [3] | reduction of effective GCase activity in tissues following treatment with CBE [3]
CO[C@H]1C[C@@H]2CC[C@@H](C)[C@@](O)(O2)C(=O)C(=O)N2CCCC[C@H]2C(=O)O[C@H]([C@H](C)C[C@@H]2CC[C@@H](O)[C@H](OC)C2)CC(=O)[C@H](C)/C=C(\C)[C@@H](O)[C@@H](OC)C(=O)[C@H](C)C[C@H](C)/C=C/C=C/C=C/1C [rapamycin] | did not appear to have any effect |  |  |  |  | 
conduritol-β-epoxide [CBE] |  | 5 of the 8 | failure to gain weight | No adverse effects | approximately 50% | up to 60%
